Counter-ions that a name gives are not always drawn. Like-named read-outs stand apart in the source and are kept apart here.
Biological target: S. aureus GyrB ATPase (Staphylococcus aureus, UniProt P0A0K8)
Test: S. aureus (SAU) GyrB ATPase inhibition, malachite green phosphate detection (E. coli GyrA + S. aureus GyrB)
Type: biochemical
Conditions: read-out: S. aureus (SAU) GyrB ATPase % Inhibition
Summary of the method: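 E. coli GyrA and S. aureus GyrB (1.25 nM each) with 500 μM ATP and 5 μg/ml sheared salmon sperm DNA in 50 mM Hepes pH 7.5, 8.0 mM MgCl2. Released phosphate detected with ammonium molybdate/malachite green at 650 nm; 2% DMSO as 0% and 2 μM novobiocin as 100% inhibition; IC50 from 10 concentrations.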

[1] = compound concentration of 1.0 μM unless otherwise noted, average value where assay was carried out more than once

S. aureus GyrB ATPase, sequence (P0A0K8 whole entry): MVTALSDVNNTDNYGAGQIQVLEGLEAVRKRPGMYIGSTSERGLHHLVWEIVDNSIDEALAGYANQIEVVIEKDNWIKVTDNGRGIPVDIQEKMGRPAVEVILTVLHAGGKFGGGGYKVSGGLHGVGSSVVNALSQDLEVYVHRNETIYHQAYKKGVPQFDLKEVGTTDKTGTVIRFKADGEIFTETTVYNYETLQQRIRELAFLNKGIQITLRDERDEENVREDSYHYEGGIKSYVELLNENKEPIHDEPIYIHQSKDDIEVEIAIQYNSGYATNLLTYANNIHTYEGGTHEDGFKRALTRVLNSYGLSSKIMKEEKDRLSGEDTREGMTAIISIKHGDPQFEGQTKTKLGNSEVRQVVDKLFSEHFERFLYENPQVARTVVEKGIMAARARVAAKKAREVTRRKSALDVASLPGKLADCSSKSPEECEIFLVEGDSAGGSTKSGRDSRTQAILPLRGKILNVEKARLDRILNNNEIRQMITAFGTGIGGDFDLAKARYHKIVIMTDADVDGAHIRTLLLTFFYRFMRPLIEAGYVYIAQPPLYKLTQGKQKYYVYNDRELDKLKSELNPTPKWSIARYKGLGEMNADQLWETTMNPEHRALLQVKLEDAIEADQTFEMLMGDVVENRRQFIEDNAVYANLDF
S. aureus GyrB ATPase, sequence (P0AES4 whole entry, further chain): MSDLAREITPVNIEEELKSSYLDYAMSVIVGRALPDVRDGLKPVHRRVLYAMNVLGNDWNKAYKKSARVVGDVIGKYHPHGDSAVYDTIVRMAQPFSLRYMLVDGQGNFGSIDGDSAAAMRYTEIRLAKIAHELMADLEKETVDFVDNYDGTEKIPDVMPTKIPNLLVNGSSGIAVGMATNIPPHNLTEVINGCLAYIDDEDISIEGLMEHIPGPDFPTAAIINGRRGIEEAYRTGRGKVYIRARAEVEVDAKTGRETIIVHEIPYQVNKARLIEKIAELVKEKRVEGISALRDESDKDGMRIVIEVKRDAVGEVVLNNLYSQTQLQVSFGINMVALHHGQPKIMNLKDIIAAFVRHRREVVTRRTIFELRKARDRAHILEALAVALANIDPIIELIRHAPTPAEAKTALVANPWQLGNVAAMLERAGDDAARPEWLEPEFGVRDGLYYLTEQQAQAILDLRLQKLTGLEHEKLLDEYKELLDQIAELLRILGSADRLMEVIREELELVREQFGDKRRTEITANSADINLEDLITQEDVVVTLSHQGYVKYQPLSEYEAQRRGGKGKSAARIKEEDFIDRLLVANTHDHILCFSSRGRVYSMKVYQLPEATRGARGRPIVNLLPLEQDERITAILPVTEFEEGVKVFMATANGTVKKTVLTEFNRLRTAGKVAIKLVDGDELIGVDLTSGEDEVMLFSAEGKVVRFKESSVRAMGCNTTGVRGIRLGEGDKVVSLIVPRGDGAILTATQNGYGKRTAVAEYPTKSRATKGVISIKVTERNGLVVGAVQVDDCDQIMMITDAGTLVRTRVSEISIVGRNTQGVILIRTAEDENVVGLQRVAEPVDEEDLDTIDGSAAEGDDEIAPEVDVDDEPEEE

Row | Compound | inhibition at 1 µM [1] | inhibition at 1 µM
1 | CCNC(=O)Nc1cc(-c2nc(C(F)(F)F)cs2)c(-c2cc(-c3nnc(C)o3)cnc2OC2CC(C)(C)N(C)C(C)(C)C2)cn1 [Example 117, 1-Ethyl-3-(5′-(5-methyl-1,3,4-oxadiazol-2-yl)-2′-(1,2,2,6,6-pentamethylpiperidin-4-yloxy)-4-(4-(trifluoromethyl)thiazol-2-yl)-3,3′-bipyridin-6-yl)urea] | 105% | –
2 | CCNC(=O)Nc1cc(-c2nc(C(F)(F)F)cs2)c(-c2cc(-c3n[nH]c(=O)o3)cnc2OC(C)CN(C)C)cn1 (stereo not drawn) [Example 118] | 118% | –
3 | CCNC(=O)Nc1cc(-c2nc(C(F)(F)F)cs2)c(-c2cc(-c3n[nH]c(=O)o3)cnc2OCCN(CC)CC)cn1 [Example 119] | 96% | –
4 | CCNC(=O)Nc1cc(-c2nc(C(F)(F)F)cs2)c(-c2cc(-c3n[nH]c(=O)o3)cnc2OCCN(C(C)C)C(C)C)cn1 [Example 120] | 118% | –
5 | CCNC(=O)Nc1cc(-c2nc(C(F)(F)F)cs2)c(-c2cc(-c3nnc([C@@H](N)C(C)C)o3)cnc2OCCN(CC)CC)cn1 [Example 122, 1-(5′-(5-(1-amino-2-methylpropyl)-1,3,4-oxadiazol-2-yl)-2′-(2-(diethylamino)ethoxy)-4-(4-(trifluoromethyl)thiazol-2-yl)-3,3′-bipyridin-6-yl)-3-ethylurea hydrochloride] | 102% | –
6 | CCCNC(=O)Nc1cc(-c2nc(C(F)(F)F)cs2)c(-c2cc(-c3nnc(C)o3)cnc2OCCN(C(C)C)C(C)C)cn1 [Example 123, 1-(2′-(2-(Diisopropylamino)ethoxy)-5′-(5-methyl-1,3,4-oxadiazol-2-yl)-4-(4-(trifluoromethyl)thiazol-2-yl)-3,3′-bipyridin-6-yl)-3-propylurea] | 78% | –
7 | CCNC(=O)Nc1cc(-c2nc(C(F)(F)F)cs2)c(-c2cnc(OC)nc2)cn1 [Example 125] | 103% | –
8 | CCNC(=O)Nc1cc(-c2nc(C(F)(F)F)cs2)c(-c2cnc(C#N)nc2)cn1 [Example 126] | 102% | –
9 | CCNC(=O)Nc1cc(-c2nc(C(F)(F)F)cs2)c(-c2ccc(F)nc2)cn1 [Example 127] | 100% | –
10 | CCNC(=O)Nc1cc(-c2nc(-c3ccccc3)cs2)c(-c2cncc(S(N)(=O)=O)c2)cn1 [Example 128] | 92% | –
11 | CCNC(=O)Nc1cc(-c2nc(-c3ccccn3)cs2)c(-c2cncc(S(C)(=O)=O)c2)cn1 [Example 129] | 102% | –
12 | CCNC(=O)Nc1cc(-c2nc(-c3ccccc3)cs2)c(-c2ccc[n+]([O-])c2)cn1 [Example 130] | 103% | –
13 | CCNC(=O)Nc1cc(-c2nc(C(F)(F)F)cs2)c(-c2cncc(-c3c[nH]c(=O)[nH]c3=O)c2)cn1 [Example 131, 1-(5′-(2,4-Dioxo-1,2,3,4-tetrahydropyrimidin-5-yl)-4-(4-(trifluoromethyl)thiazol-2-yl)-3,3′-bipyridin-6-yl)-3-ethylurea] | 93% | –
14 | CCNC(=O)Nc1cc(-c2nc(C(F)(F)F)cs2)c(-c2cncc(-c3c[nH]nc3C)c2)cn1 [Example 132] | 92% | –
15 | CCNC(=O)Nc1cc(-c2nc(C(F)(F)F)cs2)c(-c2cncc(-c3c(C)noc3C)c2)cn1 [Example 133] | 104% | –
16 | CCNC(=O)Nc1cc(-c2nc(C(F)(F)F)cs2)c(-c2cncc(-c3ccn[nH]3)c2)cn1 [Example 134] | 120% | –
17 | CCNC(=O)Nc1cc(-c2nc(C(F)(F)F)cs2)c(-c2cncc(-c3n[nH]c(=O)[nH]3)c2)cn1 [Example 135, 1-Ethyl-3-(5′-(5-oxo-4,5-dihydro-1H-1,2,4-triazol-3-yl)-4-(4-(trifluoromethyl)thiazol-2-yl)-3,3′-bipyridin-6-yl)urea] | 101% | –
18 | CCNC(=O)Nc1cc(-c2nc(C(F)(F)F)cs2)c(-c2cncc(-c3nnc(N)o3)c2)cn1 [Example 136, 1-(5′-(5-Amino-1,3,4-oxadiazol-2-yl)-4-(4-(trifluoromethyl)thiazol-2-yl)-3,3′-bipyridin-6-yl)-3-ethylurea] | 102% | –

Row | Compound | inhibition at 1 µM [1] | inhibition at 1 µM
19 | CCNC(=O)Nc1cc(-c2nc(C(F)(F)F)cs2)c(-c2nc(-c3ncnn3C)c(-c3nnc(C)o3)s2)cn1 [Example 137, 1-Ethyl-3-(5-(5-(5-methyl-1,3,4-oxadiazol-2-yl)-4-(1-methyl-1H-1,2,4-triazol-5-yl)thiazol-2-yl)-4-(4-(trifluoromethyl)thiazol-2-yl)pyridin-2-yl)urea] | 101% | –
20 | CCNC(=O)Nc1cc(-c2nc(C(F)(F)F)c(C)s2)c(-c2cncc(-c3nnc(C)o3)c2)cn1 [Example 138, 1-Ethyl-3-(5′-(5-methyl-1,3,4-oxadiazol-2-yl)-4-(5-methyl-4-(trifluoromethyl)thiazol-2-yl)-3,3′-bipyridin-6-yl)urea] | 104% | –
21 | CCNC(=O)Nc1cc(-c2nc(C(F)(F)F)cs2)c(-c2cc(-c3n[nH]c(=O)o3)c[n+]([O-])c2)cn1 [Example 139] | – | 103%
22 | CCNC(=O)Nc1cc(-c2nc(C(F)(F)F)cs2)c(-c2cncc(-c3nn(C)c(=O)o3)c2)cn1 [Example 140] | 97% | –
23 | CCNC(=O)Nc1cc(-c2nc(C(F)(F)F)cs2)c(-c2cc(-c3nnc(C)o3)cnc2OC2CCOCC2)cn1 [Example 141] | 97% | –
24 | CCNC(=O)Nc1cc(-c2nc(C(F)(F)F)c(C)s2)c(-c2cc(-c3nnc(C)o3)cnc2OC2CCOCC2)cn1 [Example 142] | 96% | –
25 | CCNC(=O)Nc1cc(C2=NC(OC)(C(F)(F)F)CS2)c(-c2cncc(-c3n[nH]c(=O)o3)c2)cn1 (stereo not drawn) [Example 143] | 98% | –
26 | CCNC(=O)Nc1cc(-c2nc(C(F)(F)F)c(C)s2)c(-c2cnc(OC)c(-c3n[nH]c(=O)o3)c2)cn1 [Example 144] | 90% | –
27 | CCNC(=O)Nc1cc(-c2nc(C(F)(F)F)c(C)s2)c(-c2cncc(-c3n[nH]c(=O)o3)c2)cn1 [Example 145] | 100% | –
28 | CCNC(=O)Nc1cc(-c2cc(C(F)(F)F)nn2C)c(-c2cncc(-c3n[nH]c(=O)o3)c2)cn1 [Example 146] | 97% | –
29 | CCNC(=O)Nc1cc(-c2sc(C)nc2C)c(-c2cncc(-c3n[nH]c(=O)o3)c2)cn1 [Example 147] | 95% | –
30 | CCNC(=O)Nc1cc(-n2cc(C(F)(F)F)cn2)c(-c2cncc(-c3n[nH]c(=O)o3)c2)cn1 [Example 148] | 97% | –
31 | CCNC(=O)Nc1cc(N2CC(C)OC(C)C2)c(-c2cncc(-c3n[nH]c(=O)o3)c2)cn1 (stereo not drawn) [Example 149] | 94% | –
32 | CCNC(=O)Nc1cc(N2C[C@@H](C)O[C@@H](C)C2)c(-c2cncc(-c3n[nH]c(=O)o3)c2)cn1 [Example 150] | 96% | –
33 | CCNC(=O)Nc1cc(N2CCCC(C)(C)C2)c(-c2cncc(-c3n[nH]c(=O)o3)c2)cn1 [Example 151] | 97% | –
34 | CCNC(=O)Nc1cc(-c2nc(C(F)(F)F)cs2)c(-c2cncc(-c3nnc(NCCCN(C)C)o3)c2)cn1 [Example 152, 1-(5′-(5-(3-(Dimethylamino)propylamino)-1,3,4-oxadiazol-2-yl)-4-(4-(trifluoromethyl)thiazol-2-yl)-3,3′-bipyridin-6-yl)-3-ethylurea] | 95% | –
35 | CCNC(=O)Nc1cc(-c2nc(C(F)(F)F)cs2)c(-c2cncc(-c3nnc(NCCOC)o3)c2)cn1 [Example 153] | 100% | –
36 | CCNC(=O)Nc1cc(-c2nc(C(F)(F)F)cs2)c(-c2cncc(-c3nnc(N4CCOCC4)o3)c2)cn1 [Example 154] | 105% | –
